Experimental data taken from patent publication US6916923B2 (Hoffmann-La Roche Inc., priority 1999, dated 2005).

Tests used:
[1] = system: colon carcinoma line HCT-116; assay: HCT-116 cell-based antiproliferative (MTT) assay; settings: Homo sapiens, HCT-116, 96 h, 1000 cells per well, 4 days post addition of test compound, read-out: Antiproliferative Activity HCT 116 (colon) Assay - IC50 Range
Protocol: (§1) The estrogen receptor negative epithelial breast carcinoma line (MDA-MB-435) was purchased from American Type Cell Culture Collection (ATCC; Rockville, Md.) and was grown in the medium recommended by ATCC. For analysis of the effect of the test compounds on growth of these cells, the cells were plated at 2000 cells per well in a 96-well tissue culture plate, and were incubated overnight at 37° C. with 5% CO2. The next day, the test compounds were dissolved in 100% dimethyl sulfoxide (DMSO) to yield a 10 mM stock solution. Each compound was diluted with sterile medium to 1 mM in a sufficient quantity to yield a final concentration of 120 μM. The compounds were then serially diluted in medium with 1.2% DMSO. One-fourth final volume of the diluted compounds was transferred to 96 well plates. Test compounds were assayed in duplicate. DMSO was added to a row of “control cells” such that the final concentration of DMSO in each well was 0.3%. Wells to which no cells were added served as the “blank.” Wells to which no inhibitor was added served as “no inhibitor control”. The plates were returned to the incubator, and 5 days post addition of test compound, were analyzed as described below.
(§2) 3-(4,5-Dimethylthiazole-2-yl)-2,5-diphenyl-2H-tetrazolium bromide (thiazolyl blue; MTT) was added to each well to yield a final concentration of 1 mg/mL. The plates were then incubated at 37° C. for 3 hours. The plates were centrifuged at 1000 rpm for 5 minutes prior to aspiration of the MTT-containing medium. The MTT-containing medium was then removed and 100 μL 100% ethanol was added to each well to dissolve the resulting formazan metabolite. To ensure complete dissolution, plates were shaken for 15 minutes at room temperature. Absorbencies were read in a microtiter plate reader (Molecular Dynamics) at a wavelength of 570 nm with a 650 nm reference. Percent inhibition was calculated by subtracting the absorbance of the blank (no cell) wells from all wells, then subtracting the division of the average absorbance of each test duplicate by the average of the controls from 1.00. Inhibitory concentrations (IC50) were determined from the linear regression of a plot of the logarithm of the concentration versus the percent inhibition.
(§3) The colon adenocarcinoma line SW480 and the colon carcinoma line HCT-116 also were obtained from the ATCC and were tested according to the same protocol provided above for MDA-MB435 cell based assay with the following modifications. Cell line SW480 was plated at 1000 cells per well and analyzed at 6 days post addition of the test compound. Cell line HCT-116 was plated at 1000 cells per well and analyzed at 4 days post addition of test compound.

[2] = molecular target: T1, Recombinant active human Cyclin E/CDK2 complexes (Homo sapiens, UniProt P24941); assay: CDK2 FlashPlate Assay (inhibition of Rb phosphorylation); type: biochemical; settings: Cyclin E/CDK2, Rb substrate, 33P-ATP, 25 minutes at room temperature; read-out: Inhibition of Cdk2 - IC50 Range
T1 construct: made in house; host or cells: insect cells
Protocol: To determine inhibition of CDK2 activity, purified recombinant retinoblastoma (Rb) protein was coated on 96 well FlashPlates (New England Nuclear, Boston, Mass.). Rb is a natural substrate for phosphorylation by CDK2 (Herwig and Strauss Eurr. J. Biochem., Vol. 246 (1997) pp. 581-601 and references therein). Recombinant active human Cyclin E/CDK2 complexes were partially purified from extracts of insect cells. The active Cyclin E/CDK2 was added to the Rb-coated FlashPlates along with ^33P-ATP and dilutions of test compounds. Plates were incubated for 25 minutes at room temperature with shaking, then washed and counted in the Topcount scintillation counter (Packard Instrument Co., Downers Grove, Ill.). Dilutions of test compounds were tested in duplicate in each assay. The percent inhibition of Rb phosphorylation, which is a measure of the inhibition of CDK2 activity, was determined according to the following formula: [formula] where “test compound” refers to the average counts per minute of the test duplicates, “nonspecific” refers to the average counts per minute when no Cyclin E/CDK2 was added, and “total” refers to the average counts per minute when no compound was added.

[3] = system: colon adenocarcinoma line SW480; assay: SW480 cell-based antiproliferative (MTT) assay; settings: Homo sapiens, SW480, 144 h, 1000 cells per well, 6 days post addition of test compound, read-out: Antiproliferative Activity SW480 (colon) Assay - IC50 Range
Protocol: as §1, §2, §3

[4] = system: estrogen receptor negative epithelial breast carcinoma line (MDA-MB-435); assay: MDA-MB-435 cell-based antiproliferative (MTT) assay; settings: Homo sapiens, MDA-MB-435, 120 h, 2000 cells per well, 5 days post addition of test compound, read-out: Antiproliferative Activity of MDA-MB435 (breast) Assay - IC50 Range
Protocol: as §1, §2

| Compound | IC50 [1] [nM] | IC50 [2] [nM] | IC50 [3] [nM] | IC50 [4] [nM] | melting point [°C] |
| --- | --- | --- | --- | --- | --- |
| O=[N+]([O-])c1ccc2c(c1)C(c1ccccc1F)=Nc1c[nH]nc1N2 [Compound A13, 5-(2-fluorophenyl)-7-nitro-pyrazolo[3,4][1,4]benzodiazepine] | 10000 to 30000 | 10 to 990 | 1100 to 9990 | 10000 to 30000 |  |
| CCOC(=O)c1ccc2c(c1)C(c1ccccc1F)=Nc1c(n[nH]c1C)N2 [Compound B9, 3-methyl-5-(2-fluorophenyl)-7-carboethoxy-pyrazolo[3,4][1,4]benzodiazepine] | 1100 to 9990 | 10 to 990 | 1100 to 9990 | 1100 to 9990 |  |
| N#Cc1cnc2c(cc([N+](=O)[O-])c3nncc32)c(-c2ccccc2Cl)n1 [Compound C18, 5-(2-chlorophenyl)-7-nitro-pyrazolo[3,4][1,4]benzodiazepine-3-carbonitrile] |  |  |  |  | 193 to 196 |
| Cc1cnc2c(cc(C(N)=O)c3nncc32)c(-c2ccccc2F)n1 [Compound C19, 3-methyl-5-(2-fluorophenyl)-pyrazolo[3,4][1,4]benzodiazepine-7-carboxamide] |  |  |  |  | 323 to 324 |
| Nc1ccc2c(c1)C(c1ccccc1Cl)=Nc1c[nH]nc1N2 [Compound C5, 5-(2-chlorophenyl)-7-amino-pyrazolo[3,4][1,4]benzodiazepine] | 10000 to 30000 | 1000 to 9990 | 10000 to 30000 | 10000 to 30000 |  |
| O=[N+]([O-])c1ccc2c(c1)C(c1ccccc1Cl)=Nc1c[nH]nc1N2 [Compound A5, 5-(2-chlorophenyl)-7-nitro-pyrazolo[3,4][1,4]benzodiazepine] | 10000 to 30000 | 10 to 990 | 1100 to 9990 | 10000 to 30000 |  |
| Cc1[nH]nc2c1N=C(c1ccccc1Cl)c1cc([N+](=O)[O-])ccc1N2 [Compound B3, 3-methyl-5-(2-chlorophenyl)-7-nitro-pyrazolo[3,4][1,4]benzodiazepine] | 10 to 1000 | 10 to 990 | 10 to 1000 | 10 to 1000 |  |
| Cc1cnc2c(cc(NS(C)(=O)=O)c3nncc32)c(-c2ccccc2Cl)n1 [Compound C9, N-(3-methyl-5-(2-chlorophenyl)-pyrazolo[3,4][1,4]benzodiazepin-7-yl)-methanesulfonamide] |  |  |  |  | 196 to 198 |
| CCCc1[nH]nc2c1N=C(c1ccccc1Cl)c1cc([N+](=O)[O-])ccc1N2 [Compound B24, 3-propyl-5-(2-chlorophenyl)-7-nitro-pyrazolo[3,4][1,4]benzodiazepine] | 10000 to 30000 | 10 to 990 | 10000 to 30000 | 10000 to 30000 |  |
| Clc1ccccc1-c1nccnc2c1cc(Cl)c1nncc12 [Compound A4, 5-(2-chlorophenyl)-7-chloro-pyrazolo[3,4][1,4]benzodiazepine] |  |  |  |  | > 300 |
| NC(=O)c1cnc2c(cc([N+](=O)[O-])c3nncc32)c(-c2ccccc2Cl)n1 [Compound C10, 5-(2-chlorophenyl)-7-nitro-pyrazolo[3,4][1,4]benzodiazepine-3-carboxamide] |  |  |  |  | > 340 |
| CCc1[nH]nc2c1N=C(c1ccccc1Cl)c1cc([N+](=O)[O-])ccc1N2 [Compound B4, 3-ethyl-5-(2-chlorophenyl)-7-nitro-pyrazolo[3,4][1,4]benzodiazepine] | 10 to 1000 | 10 to 990 | 10 to 1000 | 10 to 1000 |  |
| O=[N+]([O-])c1ccc2c(c1)C(c1ccccc1Cl)=Nc1c(n[nH]c1C1CC1)N2 [Compound B25, 3-cyclopropyl-5-(2-chlorophenyl)-7-nitro-pyrazolo[3,4][1,4]benzodiazepine] | 1100 to 9990 | 10 to 990 | 1100 to 9990 | 10 to 1000 |  |
| Cc1[nH]nc2c1N=C(c1ccccc1F)c1cc(C#N)ccc1N2 [Compound B7, 3-methyl-5-(2-fluorophenyl)-pyrazolo[3,4][1,4]benzodiazepine-7-carbonitrile] | 1100 to 9990 | 10 to 990 | 10 to 1000 | 10 to 1000 |  |
| O=[N+]([O-])c1ccc2c(c1)C(c1ccccc1Cl)=Nc1c(n[nH]c1Cc1ccccc1)N2 [Compound B8, 3-(phenylmethyl)-5-(2-chlorophenyl)-7-nitro-pyrazolo[3,4][1,4]benzodiazepine] | 10000 to 30000 | 1000 to 9990 | 10000 to 30000 | 10000 to 30000 |  |
| CC(C)c1[nH]nc2c1N=C(c1ccccc1Cl)c1cc([N+](=O)[O-])ccc1N2 [Compound B6] | 1100 to 9990 | 10 to 990 | 10 to 1000 | 10 to 1000 |  |
| O=[N+]([O-])c1ccc2c(c1)C(c1ccccc1Cl)=Nc1c(n[nH]c1CCc1ccccc1)N2 [Compound B5, 3-(2-phenylethyl)-5-(2-chlorophenyl)-7-nitro-pyrazolo[3,4][1,4]benzodiazepine] | 10000 to 30000 | 1000 to 9990 | 10000 to 30000 | 10000 to 30000 |  |
| Cc1cnc2c(cc(N)c3nncc32)c(-c2ccccc2Cl)n1 [Compound C4, 3-methyl-5-(2-chlorophenyl)-7-amino-pyrazolo[3,4][1,4]benzodiazepine] |  |  |  |  | 260 to 263 |
| Clc1ccccc1C1=Nc2c[nH]nc2Nc2ccccc21 [Compound A21, 5-(2-chlorophenyl)-pyrazolo[3,4][1,4]benzodiazepine] | 10000 to 30000 | 10 to 990 | 10000 to 30000 |  |  |
| NNC(=O)c1[nH]nc2c1N=C(c1ccccc1Cl)c1cc([N+](=O)[O-])ccc1N2 [Compound C12, N-amino-5-(2-chlorophenyl)-7-nitro-pyrazolo[3,4][1,4]benzodiazepine-3-carboxamide] | 1100 to 9990 | 10 to 990 | 10000 to 30000 |  |  |
| O=[N+]([O-])c1ccc2c(c1)C(c1ccccc1Cl)=Nc1c(n[nH]c1-c1cccs1)N2 [Compound D6] | 10000 to 30000 | 10 to 990 | 10000 to 30000 |  |  |
